Data published in the OligoGym collection.
HELM strings list units from the 5' end as sugar, base in round brackets, then linkage (d deoxyribose, r ribose, m 2'-O-methyl, p phosphodiester). Strings are as the collection lists them; they lack the last nucleoside at the 3' end of the tested compound. [moe] = 2'-O-(2-methoxyethyl) (MOE); [sp] = phosphorothioate linkage; [m5C] = 5-methylcytosine

The substances below were run against UBE3A-ATS (assay: mouse, dose not given). Settings: ASO.

Going from “RNA1{[moe](G)[sp].[moe](T)p.[moe]([m5C])p.[moe](A)p.[moe](T)p.d([m5C])[sp].d(A)[sp].d([m5C])[sp].d([m5C])[sp].d(T)[sp].d([m5C])[sp].d(T)[sp].d([m5C])[sp].d(T)[sp].d(T)[sp].[moe]([m5C])p.[moe](A)p.[moe](G)[sp].[moe](G)}$$$$ (last 3' nucleoside missing)” to “RNA1{[moe](G)[sp].[moe](T)p.[moe]([m5C])p.[moe](A)p.[moe](T)p.d([m5C])[sp].d(T)[sp].d([m5C])[sp].d(G)[sp].d(G)[sp].d(G)[sp].d(T)[sp].d(A)[sp].d(T)[sp].d(A)[sp].[moe](T)p.[moe](A)p.[moe](A)[sp].[moe](A)}$$$$ (last 3' nucleoside missing)”, the 3 h FOB score rises from 1 score 0-7 to 5.5 score 0-7.

First: RNA1{[moe](G)[sp].[moe](T)p.[moe]([m5C])p.[moe](A)p.d(T)[sp].d([m5C])[sp].d(T)[sp].d([m5C])[sp].d(G)[sp].d(G)[sp].d(G)[sp].d(T)[sp].d(A)[sp].d(T)[sp].[moe](A)p.[moe](T)p.[moe](A)p.[moe](A)[sp].[moe](A)}$$$$ (last 3' nucleoside missing)
Second: RNA1{[moe](G)[sp].[moe](T)p.[moe]([m5C])p.[moe](T)p.[moe](T)p.d([m5C])[sp].d(A)[sp].d(T)[sp].d(T)[sp].d(A)[sp].d(T)[sp].d(T)[sp].d([m5C])[sp].d(T)[sp].d([m5C])[sp].[moe](T)p.[moe](A)p.[moe](G)[sp].[moe](T)}$$$$ (last 3' nucleoside missing)
The 3 h FOB score of the first is lower: 4 score 0-7 for the first, 4.7 score 0-7 for the second.

First: RNA1{[moe](G)[sp].[moe](T)p.[moe]([m5C])p.[moe](T)p.[moe]([m5C])p.d(T)[sp].d(G)[sp].d([m5C])[sp].d(T)[sp].d([m5C])[sp].d(A)[sp].d(G)[sp].d(T)[sp].d(T)[sp].d(A)[sp].[moe](G)p.[moe](G)p.[moe](T)[sp].[moe](T)}$$$$ (last 3' nucleoside missing)
Second: RNA1{[moe](G)[sp].[moe](T)p.[moe]([m5C])p.[moe](T)p.[moe]([m5C])p.d([m5C])[sp].d([m5C])[sp].d(T)[sp].d([m5C])[sp].d(T)[sp].d(T)[sp].d(A)[sp].d(G)[sp].d(T)[sp].d(G)[sp].[moe](A)p.[moe](T)p.[moe](T)[sp].[moe](G)}$$$$ (last 3' nucleoside missing)
The 3 h FOB score of the first is lower: 1 score 0-7 for the first, 4 score 0-7 for the second.

Going from “RNA1{[moe](G)[sp].[moe]([m5C])[sp].[moe]([m5C])[sp].[moe](T)[sp].[moe](A)[sp].d(A)[sp].d(T)[sp].d(A)[sp].d(T)[sp].d(G)[sp].d(T)[sp].d(G)[sp].d(T)[sp].d([m5C])[sp].d(A)[sp].[moe](T)[sp].[moe]([m5C])[sp].[moe]([m5C])[sp].[moe](T)}$$$$ (last 3' nucleoside missing)” to “RNA1{[moe](G)[sp].[moe]([m5C])[sp].[moe]([m5C])[sp].[moe]([m5C])[sp].[moe](A)[sp].d(T)[sp].d(G)[sp].d(G)[sp].d(A)[sp].d(T)[sp].d(G)[sp].d(G)[sp].d(T)[sp].d(T)[sp].d(G)[sp].[moe](T)[sp].[moe]([m5C])[sp].[moe](A)[sp].[moe](A)}$$$$ (last 3' nucleoside missing)”, the 3 h FOB score rises from 6.8 score 0-7 to 7 score 0-7.

First: RNA1{[moe](G)[sp].[moe]([m5C])p.[moe](A)p.[moe](A)p.[moe](A)p.d(T)[sp].d(A)[sp].d([m5C])[sp].d(A)[sp].d(A)[sp].d(T)[sp].d(G)[sp].d(G)[sp].d(T)[sp].d(A)[sp].[moe](A)p.[moe](T)p.[moe]([m5C])[sp].[moe](G)}$$$$ (last 3' nucleoside missing)
Second: RNA1{[moe](G)[sp].[moe]([m5C])p.[moe](A)p.[moe](A)p.[moe](T)p.d(G)[sp].d(G)[sp].d(A)[sp].d([m5C])[sp].d(T)[sp].d(T)[sp].d(A)[sp].d(G)[sp].d(T)[sp].d(A)[sp].[moe]([m5C])p.[moe](A)p.[moe]([m5C])[sp].[moe](A)}$$$$ (last 3' nucleoside missing)
The 3 h FOB score of the first is higher: 4.2 score 0-7 for the first, 1 score 0-7 for the second.

Compared with “RNA1{[moe](G)[sp].[moe]([m5C])p.[moe](A)p.[moe](G)p.[moe]([m5C])p.d(T)[sp].d([m5C])[sp].d(T)[sp].d(T)[sp].d(T)[sp].d(G)[sp].d(T)[sp].d(A)[sp].d(G)[sp].d(G)[sp].[moe]([m5C])p.[moe]([m5C])p.[moe]([m5C])[sp].[moe](A)}$$$$ (last 3' nucleoside missing)”, “RNA1{[moe](G)[sp].[moe]([m5C])p.[moe](A)p.[moe](T)[sp].d(A)[sp].d([m5C])[sp].d([m5C])[sp].d([m5C])[sp].d(A)[sp].d(G)[sp].d(G)[sp].d(G)[sp].[moe](T)p.[moe](A)p.[moe](G)p.[moe](G)[sp].[moe](A)}$$$$ (last 3' nucleoside missing)” is lower in 3 h FOB score: 3.3 score 0-7 for the first, 0 score 0-7 for the second.

“RNA1{[moe](G)[sp].[moe]([m5C])p.[moe](A)p.[moe](T)p.[moe](A)[sp].d([m5C])[sp].d([m5C])[sp].d([m5C])[sp].d(A)[sp].d(G)[sp].d(G)[sp].d(G)[sp].d(T)[sp].[moe](A)p.[moe](G)p.[moe](G)[sp].[moe](A)}$$$$ (last 3' nucleoside missing)” and “RNA1{[moe](G)[sp].[moe]([m5C])p.[moe](A)p.[moe](T)p.[moe](A)p.[moe]([m5C])[sp].d([m5C])[sp].d([m5C])[sp].d(A)[sp].d(G)[sp].d(G)[sp].d(G)[sp].d(T)[sp].d(A)[sp].[moe](G)p.[moe](G)[sp].[moe](A)}$$$$ (last 3' nucleoside missing)” are the same in 3 h FOB score: 1 score 0-7 for the first, 1 score 0-7 for the second.

First: RNA1{[moe](G)[sp].[moe]([m5C])p.[moe](A)p.[moe](T)p.[moe](A)p.[moe]([m5C])p.d([m5C])[sp].d([m5C])[sp].d(A)[sp].d(G)[sp].d(G)[sp].d(G)[sp].d(T)[sp].d(A)[sp].d(G)[sp].d(G)[sp].[moe](A)p.[moe](T)[sp].[moe](T)}$$$$ (last 3' nucleoside missing)
Second: RNA1{[moe](G)[sp].[moe]([m5C])p.[moe](A)p.[moe](T)p.[moe](A)p.d([m5C])[sp].d([m5C])[sp].d([m5C])[sp].d(A)[sp].d(G)[sp].d(G)[sp].d(G)[sp].d(T)[sp].d(A)[sp].d(G)[sp].[moe](G)p.[moe](A)p.[moe](T)[sp].[moe](T)}$$$$ (last 3' nucleoside missing)
The 3 h FOB score of the first is lower: 1 score 0-7 for the first, 3 score 0-7 for the second.

First: RNA1{[moe](G)[sp].[moe]([m5C])p.[moe](A)p.[moe](T)p.[moe](G)p.d(A)[sp].d(T)[sp].d(T)[sp].d([m5C])[sp].d(T)[sp].d(A)[sp].d(A)[sp].d([m5C])[sp].d([m5C])[sp].d(A)[sp].[moe](T)p.[moe](A)p.[moe](G)[sp].[moe](A)}$$$$ (last 3' nucleoside missing)
Second: RNA1{[moe](G)[sp].[moe]([m5C])p.[moe](A)p.[moe](T)p.[moe](G)p.d(T)[sp].d(G)[sp].d(G)[sp].d(G)[sp].d([m5C])[sp].d([m5C])[sp].d(T)[sp].d([m5C])[sp].d(T)[sp].d(A)[sp].[moe](T)p.[moe](T)p.[moe](A)[sp].[moe](A)}$$$$ (last 3' nucleoside missing)
The 3 h FOB score of the first is lower: 1 score 0-7 for the first, 4 score 0-7 for the second.

“RNA1{[moe](G)[sp].[moe]([m5C])p.[moe](A)p.[moe](T)p.[moe](T)p.d(G)[sp].d(G)[sp].d([m5C])[sp].d(T)[sp].d(T)[sp].d([m5C])[sp].d(A)[sp].d(T)[sp].d(A)[sp].d(T)[sp].[moe](T)p.[moe](T)p.[moe]([m5C])[sp].[moe](T)}$$$$ (last 3' nucleoside missing)” and “RNA1{[moe](G)[sp].[moe]([m5C])p.[moe](A)p.[moe](T)p.d(A)[sp].d([m5C])[sp].d([m5C])[sp].d([m5C])[sp].d(A)[sp].d(G)[sp].d(G)[sp].d(G)[sp].d(T)[sp].d(A)[sp].[moe](G)p.[moe](G)p.[moe](A)p.[moe](T)[sp].[moe](T)}$$$$ (last 3' nucleoside missing)” are the same in 3 h FOB score: 1 score 0-7 for the first, 1 score 0-7 for the second.

First: RNA1{[moe](G)[sp].[moe]([m5C])p.[moe](A)p.[moe]([m5C])p.[moe](A)p.d(T)[sp].d(A)[sp].d(G)[sp].d(A)[sp].d([m5C])[sp].d([m5C])[sp].d(A)[sp].d(T)[sp].d(A)[sp].d(G)[sp].[moe]([m5C])p.[moe](T)p.[moe](G)[sp].[moe](A)}$$$$ (last 3' nucleoside missing)
Second: RNA1{[moe](G)[sp].[moe]([m5C])p.[moe](A)p.[moe]([m5C])p.[moe](A)p.d([m5C])[sp].d([m5C])[sp].d(T)[sp].d(G)[sp].d(G)[sp].d(A)[sp].d(T)[sp].d(T)[sp].d(T)[sp].d([m5C])[sp].[moe](A)p.[moe]([m5C])p.[moe](T)[sp].[moe](A)}$$$$ (last 3' nucleoside missing)
The 3 h FOB score of the first is higher: 3.3 score 0-7 for the first, 2 score 0-7 for the second.

Compared with “RNA1{[moe](G)[sp].[moe]([m5C])p.[moe](A)p.[moe]([m5C])p.[moe](T)p.d(T)[sp].d(A)[sp].d(A)[sp].d(A)[sp].d(T)[sp].d(T)[sp].d(T)[sp].d(A)[sp].d(T)[sp].d([m5C])[sp].[moe](A)p.[moe](G)p.[moe](T)[sp].[moe](T)}$$$$ (last 3' nucleoside missing)”, “RNA1{[moe](G)[sp].[moe]([m5C])p.[moe](T)p.[moe](A)p.[moe](T)p.d(A)[sp].d(G)[sp].d(G)[sp].d(T)[sp].d(G)[sp].d(T)[sp].d([m5C])[sp].d(A)[sp].d([m5C])[sp].d(A)[sp].[moe](T)p.[moe](A)p.[moe](T)[sp].[moe](T)}$$$$ (last 3' nucleoside missing)” is lower in 3 h FOB score: 3 score 0-7 for the first, 2 score 0-7 for the second.

First: RNA1{[moe](G)[sp].[moe]([m5C])p.[moe](T)p.[moe](A)p.[moe](T)p.d(A)[sp].d([m5C])[sp].d([m5C])[sp].d([m5C])[sp].d([m5C])[sp].d(T)[sp].d(A)[sp].d(G)[sp].d(G)[sp].d(A)[sp].[moe](T)p.[moe]([m5C])p.[moe](A)[sp].[moe](G)}$$$$ (last 3' nucleoside missing)
Second: RNA1{[moe](G)[sp].[moe]([m5C])p.[moe](T)p.[moe](A)p.[moe](T)p.d([m5C])[sp].d(T)[sp].d(G)[sp].d(T)[sp].d(A)[sp].d([m5C])[sp].d(A)[sp].d(A)[sp].d(A)[sp].d(A)[sp].[moe](T)p.[moe](G)p.[moe](G)[sp].[moe](A)}$$$$ (last 3' nucleoside missing)
The 3 h FOB score of the first is higher: 3.8 score 0-7 for the first, 0 score 0-7 for the second.
